Here are results for one compound from US20070149481A1, “N,n-bridged, nitrogen-substituted carbacyclic indolocarbazoles as protein kinase inhibitors” (priority 2002, published 2007).

The nature of data set [1]: Determination of brain/plasma ratios for NAD0241 and comparison with NAD0180 (Example 56E). To be noted: rats, 5 mg/kg i.v., 1 hour post-administration. It is filed as in vivo, Wistar Han Rats. As for the experimental part:
Application of Compound: 5 mg/kg of NAD 241 and NAD0180 each in a vehicle of 1.5 mL/kg PEG 400 Macrogol Ph. Eur. were applied i.v. through the femoral vein to two groups (n=3) of Wistar Han Rats weighing between 240-270 g. The application was performed under anaesthesia, initiated with 3.5% Isofluorane/O2, then maintained at 1% during compound application and suture of the vein. 200 μL of local anaesthetic lidocaine were locally administered. 1 hour after application of the compound 200 μl of blood were obtained by tail vein incision. Immediately following the blood sampling rats were terminated by decapitation after brief CO2 anaesthesia Brains were resected and weighed. Plasma was obtained by centrifugation of the tail vein blood at 13000 g for 20 minutes at 4° C. […]
Establishment of Extraction Recovery and Standard Curve for NAD0241 and NAD0180: 100 μL of plasma or 0.5 g brain tissue homogenate in saturated NaCl, obtained from control rats, were spiked with NAD0241 and NAD0180, respectively, to produce concentrations ranging from 1 ng/mL to 5 μg/mL. […] Quantitative analysis of the extracts was performed by HPLC with fluorescence detection. […] Fluorescence detection and quantitation by peak area was performed with a G1321A (Agilent Tech 1100 series) detector at excitation and emission wavelengths of 317 nm and 542 nm, respectively, for NAD0241, and 315 nm and 565 nm for NAD0180. […]

For another data set, the target named is His tagged ERK2 (Homo sapiens, UniProt P28482). As to the kind of experiment: Extracellular signal Regulated Kinase 2 inhibition assay (ERK2), radioactive filtermat format. It counts as biochemical. The note with it: 10 μM compound. As for the experimental part:
The ERK2 kinase activity assay utilizes a radioactivity-based format in a 96-well PCR plate with radioactive readout. The ERK2 activity was assayed in a 25 μL assay mixture containing 25 mM HEPES (pH 7.0), 250 μM ATP, 1 mM MgCl2, 1 mM DTT, 2% DMSO, 150 ng/mL Myelin Basic Protein (MBP, Sigma M-1891), and 13.6 ng/mL His tagged ERK2 (specific activity=38.1 nmol/min*mg). Compounds were screened for inhibition of the ERK2 kinase activity at a concentration of 10 μM. The kinase reaction was allowed to proceed at 37° C. for 30 minutes, then reaction was stopped by the addition of 5 μl of 0.5M EDTA (pH 8). 15 μL of each solution were then spotted onto the corresponding square of a filtermat (8×12 glassfibre mat 90×120 mm, PE-Wallac 1450-421). The filtermat was allowed to dry and washed once with 10% TCA, 2% PPA, 500 mM NaCl each for 30 minutes at rt. Two further washings in 10% TCA and 2% PPA for 30 minutes were performed, then a final 30 minute wash in 99% EtOH at rt was done and the filtermat was air dried. The dry filtermat was then placed in a sample bag with a Meltilex sheet (Melt-on scintillator sheets 73×109 mm, PE-Wallac 1450-441 for filtermat A) over the filtermat. The bag was trimmed to fit into the microplate heatsealer (PE-Wallac 1495-021). The heatsealer is used to melt the Meltilex on the filtermat. The bag containing the filtermat and the melted Meltilex was then placed into a filter cassette and counted using the Microbeta Jet Scintillation and Luminescence Counter PE-Wallac 1450.

His tagged ERK2, sequence (P28482 whole entry): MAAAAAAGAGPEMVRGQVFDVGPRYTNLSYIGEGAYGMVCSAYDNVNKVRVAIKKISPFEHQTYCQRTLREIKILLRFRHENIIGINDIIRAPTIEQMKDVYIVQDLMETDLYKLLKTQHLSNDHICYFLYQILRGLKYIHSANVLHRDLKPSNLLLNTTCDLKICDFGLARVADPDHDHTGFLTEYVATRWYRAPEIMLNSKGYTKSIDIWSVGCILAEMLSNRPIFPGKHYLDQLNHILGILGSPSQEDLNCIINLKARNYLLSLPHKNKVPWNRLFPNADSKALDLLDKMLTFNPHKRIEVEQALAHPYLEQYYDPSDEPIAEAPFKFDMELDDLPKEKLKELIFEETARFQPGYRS

For `NC(=O)[C@]1(N)CC2CC1n1c3ccccc3c3c4c(c5c6ccccc6n2c5c31)C(=O)NC4=O` (mixture of isomers) [Compound 5], the brain/plasma ratio fold difference vs NAD0180 at 1 h in data set [1] (Wistar Han, rat, brain and plasma, iv) was more than 30 fold. Besides, the “ability to pass the BBB / blood-brain barrier penetration” value in data set [1] (NAD0241 vs NAD0180) is given as “pass more readily the BBB”. Besides, the inhibition (usually the relative decrease from the control value, in per cent) at 10 µM at His tagged ERK2 stood at 92.3%.
